Test results: publication PMC9481151, “Discovery of new symmetrical and asymmetrical nitrile-containing 1,4-dihydropyridine derivatives as dual kinases and P-glycoprotein inhibitors: synthesis, in vitro assays, and in silico studies” (Journal of Enzyme Inhibition and Medicinal Chemistry, 2022)

Columns and labels:
CCRF-CEM = test: NCI single dose (10 µM) SRB screen; assay type: cell-based, human; conditions: leukaemia, 48 h
HL-60(TB) = test: NCI single dose (10 µM) SRB screen; assay type: cell-based, human; conditions: leukaemia, 48 h
K-562 = test: NCI single dose (10 µM) SRB screen; assay type: cell-based, human; conditions: leukaemia, 48 h
MOLT-4 = test: NCI single dose (10 µM) SRB screen; assay type: cell-based, human; conditions: leukaemia, 48 h
RPMI-8226 = test: NCI single dose (10 µM) SRB screen; assay type: cell-based, human; conditions: leukaemia, 48 h
SR = test: NCI single dose (10 µM) SRB screen; assay type: cell-based, human; conditions: leukaemia, 48 h
A549/ATCC = test: NCI single dose (10 µM) SRB screen; assay type: cell-based, human; conditions: non-small cell lung cancer, 48 h
EKVX = test: NCI single dose (10 µM) SRB screen; assay type: cell-based, human; conditions: non-small cell lung cancer, 48 h
HOP-62 = test: NCI single dose (10 µM) SRB screen; assay type: cell-based, human; conditions: non-small cell lung cancer, 48 h
NCI-H23 = test: NCI single dose (10 µM) SRB screen; assay type: cell-based, human; conditions: non-small cell lung cancer, 48 h
NCI-H322M = test: NCI single dose (10 µM) SRB screen; assay type: cell-based; conditions: non-small cell lung cancer, 48 h
NCI-H460 = test: NCI single dose (10 µM) SRB screen; assay type: cell-based, human; conditions: non-small cell lung cancer, 48 h
NCI-H522 = test: NCI single dose (10 µM) SRB screen; assay type: cell-based, human; conditions: non-small cell lung cancer, 48 h
COLO 205 = test: NCI single dose (10 µM) SRB screen; assay type: cell-based, human; conditions: colon cancer, 48 h
HCC-2998 = test: NCI single dose (10 µM) SRB screen; assay type: cell-based, human; conditions: colon cancer, 48 h
HCT-116 = test: NCI single dose (10 µM) SRB screen; assay type: cell-based, human; conditions: colon cancer, 48 h
HCT-15 = test: NCI single dose (10 µM) SRB screen; assay type: cell-based, human; conditions: colon cancer, 48 h
HT29 = test: NCI single dose (10 µM) SRB screen; assay type: cell-based, human; conditions: colon cancer, 48 h
KM12 = test: NCI single dose (10 µM) SRB screen; assay type: cell-based, human; conditions: colon cancer, 48 h
SF-268 = test: NCI single dose (10 µM) SRB screen; assay type: cell-based, human; conditions: CNS cancer, 48 h
SF-295 = test: NCI single dose (10 µM) SRB screen; assay type: cell-based, human; conditions: CNS cancer, 48 h
SF-539 = test: NCI single dose (10 µM) SRB screen; assay type: cell-based, human; conditions: CNS cancer, 48 h
SNB-19 = test: NCI single dose (10 µM) SRB screen; assay type: cell-based, human; conditions: CNS cancer, 48 h
SNB-75 = test: NCI single dose (10 µM) SRB screen; assay type: cell-based, human; conditions: CNS cancer, 48 h
U251 = test: NCI single dose (10 µM) SRB screen; assay type: cell-based, human; conditions: CNS cancer, 48 h
MALME-3M = test: NCI single dose (10 µM) SRB screen; assay type: cell-based, human; conditions: melanoma, 48 h
M14 = test: NCI single dose (10 µM) SRB screen; assay type: cell-based, human; conditions: melanoma, 48 h
MDA-MB-435 = test: NCI single dose (10 µM) SRB screen; assay type: cell-based, human; conditions: melanoma, 48 h
SK-MEL-2 = test: NCI single dose (10 µM) SRB screen; assay type: cell-based, human; conditions: melanoma, 48 h
SK-MEL-28 = test: NCI single dose (10 µM) SRB screen; assay type: cell-based, human; conditions: melanoma, 48 h
UACC-257 = test: NCI single dose (10 µM) SRB screen; assay type: cell-based, human; conditions: melanoma, 48 h
UACC-62 = test: NCI single dose (10 µM) SRB screen; assay type: cell-based, human; conditions: melanoma, 48 h
IGROV1 = test: NCI single dose (10 µM) SRB screen; assay type: cell-based, human; conditions: ovarian cancer, 48 h
OVCAR-5 = test: NCI single dose (10 µM) SRB screen; assay type: cell-based, human; conditions: ovarian cancer, 48 h
NCI/ADR-RES = test: NCI single dose (10 µM) SRB screen; assay type: cell-based, human; conditions: ovarian cancer, 48 h
SK-OV-3 = test: NCI single dose (10 µM) SRB screen; assay type: cell-based, human; conditions: ovarian cancer, 48 h
786-0 = test: NCI single dose (10 µM) SRB screen; assay type: cell-based, human; conditions: renal cancer, 48 h
A498 = test: NCI single dose (10 µM) SRB screen; assay type: cell-based, human; conditions: renal cancer, 48 h
ACHN = test: NCI single dose (10 µM) SRB screen; assay type: cell-based, human; conditions: renal cancer, 48 h
CAKI-1 = test: NCI single dose (10 µM) SRB screen; assay type: cell-based, human; conditions: renal cancer, 48 h
SN12C = test: NCI single dose (10 µM) SRB screen; assay type: cell-based, human; conditions: renal cancer, 48 h
TK-10 = test: NCI single dose (10 µM) SRB screen; assay type: cell-based, human; conditions: renal cancer, 48 h
UO-31 = test: NCI single dose (10 µM) SRB screen; assay type: cell-based, human; conditions: renal cancer, 48 h
PC-3 = test: NCI single dose (10 µM) SRB screen; assay type: cell-based, human; conditions: prostate cancer, 48 h
DU-145 = test: NCI single dose (10 µM) SRB screen; assay type: cell-based, human; conditions: prostate cancer, 48 h
MDA-MB-231 = test: NCI single dose (10 µM) SRB screen; assay type: cell-based, human; conditions: breast cancer, 48 h
T-47D = test: NCI single dose (10 µM) SRB screen; assay type: cell-based, human; conditions: breast cancer, 48 h
MDA-MB-468 = test: NCI single dose (10 µM) SRB screen; assay type: cell-based, human; conditions: breast cancer, 48 h
Staphylococcus aureus = test: Agar well diffusion method
Bacillus subtilis = test: Agar well diffusion method
Escherichia coli = test: Agar well diffusion method
Pseudomonas aeruginosa = test: Agar well diffusion method

CCOC(=O)C1=C(C)NC(C)=C(C(=O)OCCOC)C1c1cccc(C#N)c1 (racemic) [Compound 2k, (±)-3-Ethyl 5-(2-methoxyethyl) 4-(3-cyanophenyl)-2,6-dimethyl-1,4-dihydropyridine-3,5-dicarboxylate]
10%: GI% K-562 (K-562)
57.7%: % activity index, E. coli (Escherichia coli; relative to ciprofloxacin)
20 mm: zone of inhibition at 1000 µg/mL (Pseudomonas aeruginosa; Pseudomonas aeruginosa, 24 h, read-out: Diameter of inhibition zone, P. aeruginosa)
15 mm: zone of inhibition at 1000 µg/mL (Escherichia coli; Escherichia coli, 24 h, read-out: Diameter of inhibition zone, E. coli)
– (Only GI% ≥ 10 are shown): GI% CCRF-CEM (CCRF-CEM) | GI% MOLT-4 (MOLT-4) | GI% RPMI-8226 (RPMI-8226) | GI% A549/ATCC (A549/ATCC) | GI% EKVX (EKVX) | GI% HOP-62 (HOP-62) | GI% NCI-H23 (NCI-H23) | GI% NCI-H322M (NCI-H322M) | GI% NCI-H460 (NCI-H460) | GI% NCI-H522 (NCI-H522) | GI% COLO 205 (COLO 205) | GI% HCC-2998 (HCC-2998) | GI% HCT-116 (HCT-116) | GI% HCT-15 (HCT-15) | GI% HT29 (HT29) | GI% KM12 (KM12) | GI% SF-268 (SF-268) | GI% SF-295 (SF-295) | GI% SF-539 (SF-539) | GI% SNB-19 (SNB-19) | GI% SNB-75 (SNB-75) | GI% U251 (U251) | GI% MALME-3M (MALME-3M) | GI% M14 (M14) | GI% MDA-MB-435 (MDA-MB-435) | GI% SK-MEL-2 (SK-MEL-2) | GI% SK-MEL-28 (SK-MEL-28) | GI% UACC-257 (UACC-257) | GI% UACC-62 (UACC-62) | GI% IGROV1 (IGROV1) | GI% OVCAR-5 (OVCAR-5) | GI% NCI/ADR-RES (NCI/ADR-RES) | GI% SK-OV-3 (SK-OV-3) | GI% 786-0 (786-0) | GI% ACHN (ACHN) | GI% CAKI-1 (CAKI-1) | GI% SN12C (SN12C) | GI% TK-10 (TK-10) | GI% UO-31 (UO-31) | GI% PC-3 (PC-3) | GI% DU-145 (DU-145) | GI% MDA-MB-231 (MDA-MB-231) | GI% T-47D (T-47D) | GI% MDA-MB-468 (MDA-MB-468)
56.5%: % activity index, B. subtilis (Bacillus subtilis; relative to ciprofloxacin)
21%: GI% A498 (A498)
13%: GI% SR (SR)
17 mm: zone of inhibition at 1000 µg/mL (Staphylococcus aureus; Staphylococcus aureus, 24 h, read-out: Diameter of inhibition zone, S. aureus)
12%: GI% HL-60(TB) (HL-60(TB))
70.8%: % activity index, S. aureus (Staphylococcus aureus; relative to ciprofloxacin)
86.9%: % activity index, P. aeruginosa (Pseudomonas aeruginosa; relative to ciprofloxacin)
13 mm: zone of inhibition at 1000 µg/mL (Bacillus subtilis; Bacillus subtilis, 24 h, read-out: Diameter of inhibition zone, B. subtilis)
